Results reported in patent publication US20220024921A1, “1,3,4-OXADIAZOLONE COMPOUND AND PHARMACEUTICAL” (NIPPON SHINYAKU CO., LTD., priority 2018, published 2022).

Assays:
NZB/W F1 mice = assay: Inhibitory effect on systemic lupus erythematosus and lupus nephritis model animals; format: in vivo; conditions: for survival rate / onset rate of proteinuria / anti-double-stranded DNA antibody titer: NZB/W F1 mice, 15, 30 mg per 1 kg twice a day for 15 weeks; for onset rate of proteinuria: UACR>20 = proteinuria-positive; for anti-double-stranded DNA antibody titer / Anti-double-stranded DNA antibody titer (U/mL): plasma, final day of administration; for Number of proteinuria-positive individuals: UACR>20 defined as positive; for Anti-double-stranded DNA antibody titer (U/mL): median of group; for Number of dead/euthanized individuals: until the final day of administration
Description: For the evaluation of test substances, NZB/W F1 mice (29, 30-week-aged female), which are model mice with systemic lupus erythematosus and lupus nephritis, were used. These mice are a spontaneous animal model, and an increase in autoantibodies such as anti-double-stranded DNA antibody, which is considered to be a cause of systemic lupus erythematosus, and proteinuria, which is a characteristic of lupus nephritis, are observed for the mice, and the mice are known to die from nephritis.
Urine was collected before the start of the test, and individuals with a urinary albumin concentration÷urinary creatinine concentration (UACR) value of 5 or more were excluded. Furthermore, the anti-double-stranded DNA antibody titer in blood and the body weight were measured before the start of the test, and 53 mice were grouped into 5 groups of 10 or 13 mice based on blood anti-double-stranded DNA antibody titer, age, and body weight. Since early death was expected for the vehicle-administered group, the test was conducted with 13 mice as this group.
Example 75 and Example 202 were used as test substances, and a 0.5% methyl cellulose solution which is a vehicle was used as a control. Example 75 and Example 202 were prepared into solutions of 1.5 and 3.0 mg/mL by being dissolved in a 0.5% methyl cellulose solution.
After grouping, the 0.5% methyl cellulose solution or the 1.5 or 3.0 mg/mL solution of Example 75 or Example 202 was administered to each of the mice of the 7 groups. The single dose was set to 10 mL per 1 kg of body weight, and the dose was administered twice a day. Under these conditions, the dose per time is 15, 30 mg per 1 kg of body weight. Administration was started on 29 or 30-week-aged mice, and was performed daily for 15 weeks until the age of 44 or 45 weeks.
Blood was collected from the tail vein of each of all the surviving individuals on the final day of administration. Then, the blood was centrifuged and the plasma was separated and taken. The plasma was diluted 3000-fold, and the anti-double-stranded DNA antibody titer was measured by ELISA method (Levis anti-dsDNA-mouse ELISA Kit, FUJIFILM Wako Shibayagi Corporation). Measurement and analysis were performed according to the protocol of the Kit.
All the surviving individuals on the final day of administration were bred in a mouse metabolism cage (CLEA Japan, Inc.) for 16 hours, and urine was collected from each individual. The solids were removed by centrifuging the urine and collecting the supernatant. An automatic analyzer (JCA-BM6050 BioMajesty, JEOL Ltd.) was used to measure the albumin concentration and creatinine concentration in urine after centrifugation. A urinary albumin/creatinine ratio (UACR) was calculated by dividing the albumin concentration by the creatinine concentration, and individuals with UACR>20 were defined as proteinuria-positive individuals. In addition, for almost all the individuals that died before the final day of administration, UACR>20 was confirmed in urinalysis immediately before death, and thus these individuals were treated as proteinuria-positive individuals.

[1] = system: graft-versus-host disease model CB6F1 mice; assay: Lymphocyte proliferation inhibitory effect using graft-versus-host disease model animals (splenomegaly formation); format: in vivo; conditions: Mus musculus, 240 h, oral, twice a day for 10 days, GVHD model CB6F1 mice, read-out: Inhibition rate (%) (splenomegaly formation); for inhibition in vivo at 20 mg/kg: single dose 20 mg/kg
Procedure: BALB/c mice (8-week-aged female) were euthanized, and then the spleen was removed from each mouse. Then, hemolysis treatment was performed to isolate spleen cells. The obtained spleen cells were intravenously transplanted into CB6F1 mice (8-week-aged female), which are C57BL/6 and BALB/c F1 mice, to prepare a model, and splenomegaly was induced. For transplantation, spleen cells for 1.2 BALB/c mouse were used for one CB6F1 mouse.
Each test substance shown in Table 64 was weighed and dissolved in a 0.5% methyl cellulose solution, thereby preparing test substance solutions of 0.3 to 10 mg/mL.
A vehicle (0.5% methyl cellulose solution) or test substance was orally administered to each CB6F1 mouse after transplantation at a dose of 3 to 50 mg/kg in terms of body weight twice a day for 10 days from the day after transplantation. The mouse was euthanized on the 11th day from the start of administration, then the spleen was removed therefrom, and the wet weight of the spleen was measured. For each of CB6F1 mice that had not undergone transplantation as a control group, the wet weight of the spleen was also measured.
The splenomegaly formation inhibition rate when the spleen weights of the mice to which the vehicle was administered after transplantation and the mice on which transplantation had not been performed were 0% and 100%, respectively, was calculated.

[2] = target: PIM3 transgenic cells (Ba/F3) (Homo sapiens, UniProt Q86V86); assay: Proliferation inhibitory effect on PIM3 transgenic cells; format: cell-based, mouse; conditions: proliferation inhibition, 72 hours, Cell Counting Kit-8, read-out: PIM3 IC50
Description: Human PIM1, 2, and 3 genes were inserted into the multi-cloning sites of retrovirus expression vectors pMYs-IRES-GFP, respectively, to prepare gene transfer vectors. Then, each gene transfer vector was introduced into packaging cells PLAT-E derived from a human fetal kidney cell line in the logarithmic growth phase, using a transfection reagent (FuGENE6, Promega Corporation). Since the culture supernatant of PLAT-E after gene transfer contained virus particles for gene transfer, the culture supernatant was collected and used as a medium for gene transfer. The medium for gene transfer was added to a plate coated with RetroNectin, and the plate was incubated to attach the virus particles to the plate. Then, a mouse pro-B cell line Ba/F3 in the logarithmic growth phase was seeded on the plate and infected with the virus to prepare PIM1, 2, or 3 transgenic cells that proliferate in a PIM 1, 2, or 3-dependent manner. The expression of PIM1, 2, or 3 protein in each cell was confirmed by Western blotting.
Each test substance was prepared to 10 mM with dimethylsulfoxide (DMSO), and diluted with DMSO so as to have concentrations of 3000, 1000, 300, 100, 30, 10, 3, and 1 μM. Moreover, each dilution was further diluted 10-fold with distilled water to prepare a test substance solution.
PIM1, 2, 3-expressing cells were seeded on a 96-well plate, and each test substance solution prepared the next day was added such that final concentrations were 10000, 3000, 1000, 300, 100, 30, 10, 3, and 1 nM. 72 hours after the addition, 10 μL of Cell Counting Kit-8 (DOJINDO LABORATORIES) was added to each well. After incubation for 1 to 4 hours, absorbance OD450 at 450 nm was measured. In addition, absorption OD650 at 650 nm as a reference wavelength was measured.
OD450-OD650 for each condition was calculated, and then the inhibition rates when OD450-OD650 of negative control (DMSO only) and OD450-OD650 of Blank (without cells) were set to 0% and 100%, respectively, were calculated. Then, non-linear regression analysis was performed for logarithmic dose and inhibition rate using a two-parameter logistic model to estimate IC50 values.
For the compounds with the following Example numbers, in addition to the above proliferation inhibitory effect on PIM1 transgenic cells, the proliferation inhibitory effect on PIM2 transgenic cells and the proliferation inhibitory effect on PIM3 transgenic cells were calculated as IC50.

[3] = single dose 15 mg/kg twice a day for 15 weeks
[4] = single dose 30 mg/kg twice a day for 15 weeks

C[C@H](Nc1cc(-c2n[nH]c(=O)o2)cc(F)c1OC(F)(F)F)C1CCNCC1.Cl [Example 202, 5-[3-fluoro-5-{[(1S)-1-(piperidin-4-yl)ethyl]amino}-4-(trifluoromethoxy)phenyl]-1,3,4-oxadiazol-2(3H)-one hydrochloride]
survival rate (NZB/W F1 mice): improving the survival rate
onset rate of proteinuria (NZB/W F1 mice): decreasing the onset rate of proteinuria
anti-double-stranded DNA antibody titer (NZB/W F1 mice): suppressing an increase in anti-double-stranded DNA antibody titer
Number of proteinuria-positive individuals (NZB/W F1 mice; [3]): 1/10
Anti-double-stranded DNA antibody titer (U/mL) (NZB/W F1 mice; [3]): 568 U/mL
Number of dead/euthanized individuals (NZB/W F1 mice; [3]): 1/10
Number of proteinuria-positive individuals (NZB/W F1 mice; [4]): 1/10
Anti-double-stranded DNA antibody titer (U/mL) (NZB/W F1 mice; [4]): 112 U/mL
Number of dead/euthanized individuals (NZB/W F1 mice; [4]): 1/10
inhibition in vivo at 10 mg/kg ([1]; single dose 10 mg/kg): 28.4%
inhibition in vivo at 20 mg/kg [1]: 33.5%
GI50 [2]: 78 nM

C[C@H](Nc1cc(-c2n[nH]c(=O)o2)cc(F)c1C(F)(F)F)C1CCNCC1.Cl [Example 75, 5-[3-fluoro-5-{[(1S)-1-(piperidin-4-yl)ethyl]amino}-4-(trifluoromethyl)phenyl]-1,3,4-oxadiazol-2(3H)-one hydrochloride]
survival rate (NZB/W F1 mice): improving the survival rate
onset rate of proteinuria (NZB/W F1 mice): decreasing the onset rate of proteinuria
anti-double-stranded DNA antibody titer (NZB/W F1 mice): suppressing an increase in anti-double-stranded DNA antibody titer
Number of proteinuria-positive individuals (NZB/W F1 mice; [3]): 2/10
Anti-double-stranded DNA antibody titer (U/mL) (NZB/W F1 mice; [3]): 423 U/mL
Number of dead/euthanized individuals (NZB/W F1 mice; [3]): 0/10
Number of proteinuria-positive individuals (NZB/W F1 mice; [4]): 0/10
Anti-double-stranded DNA antibody titer (U/mL) (NZB/W F1 mice; [4]): 306 U/mL
Number of dead/euthanized individuals (NZB/W F1 mice; [4]): 0/10
inhibition in vivo at 6 mg/kg ([1]; single dose 6 mg/kg): 21.7%
inhibition in vivo at 20 mg/kg [1]: 27.1%
GI50 [2]: 120 nM
